Laboratory results: patent US8372831B2, “Isoxazoline linked pyrrolo[2,1-c][1,4]benzodiazepine hybrids as potential anticancer agents and the process for preparation thereof” (Council of Scientific & Industrial Research, priority 2008, dated 2013)

Test system: duplex-form calf thymus DNA (CT-DNA)
Assay: Thermal denaturation studies with calf thymus DNA
Assay type: binding
Conditions: [PBD]:[DNA] molar ratio 1:5, CT-DNA 100 μM, ligand 20 μM, pH 7.00
Experimental: Compounds have been subjected to thermal denaturation studies with duplex-form calf thymus DNA (CT-DNA) using a modification of a reported procedure. Working solutions in aqueous buffer (10 mM NaH2PO4/Na2HPO4, 1 mM Na2EDTA, pH 7.00+0.01) containing CT-DNA (100 (μm in phosphate) and the PBD (20(μm) have been prepared by addition of concentrated PBD solutions in DMSO to obtain a fixed [PBD]/[DNA] molar ratio of 1:5. The DNA-PBD solutions have been incubated at 37° C. for 0 and 18 hrs prior to analysis. Samples have been monitored at 260 nm using a Beckman DU-800 spectrophotometer fitted with high performance temperature controller, and heated at 1° C. min^−1 in the 40-110° C. range. DNA helix→coil transition temperatures (Tm) have been obtained from the maxima in the d(A260)/d T derivative plots. Drug-induced alterations in DNA melting behavior are given by: ΔTm=Tm(DNA+PBD)−Tm(DNA alone), where the Tm value for the PBD-free CT-DNA is 68.5±0.01.
The DNA-binding for these novel C8-linked isoxazoline-PBD hybrids has been examined by thermal denaturation studies using calf thymus CT-DNA. […] Data for 5a-c, 9b and 9g and DC-81 are included in Table 4 for comparison.

Row | SMILES | ΔTm after incubation at 37° C. for 0 hrs | ΔTm after incubation at 37° C. for 18 hrs
1 | COc1cc2c(cc1OCCCCCOc1c(OC)cc(C3CC(c4ccc(OC)c(OC)c4OC)=NO3)cc1OC)N=C[C@@H]1CCCN1C2=O (stereo partly drawn) [Compound 9g, (11aS)-8-(5-[(2,6-di(methyloxy)-4-3-[2,3,4-tri(methyloxy)phenyl]-4,5-dihydro-5-isoxazolylphenyl)oxy]pentyloxy)-7-(methyloxy)-2,3,5,11a-tetrahydro-1H-benzo[e]pyrrolo[1,2-a][1,4]diazepin-5-one] | 1.4 °C | 2.1 °C
2 | COc1cc2c(cc1O)N=CC1CCCN1C2=O (centres unmarked) [DC-81, reference compound] | 0.3 °C | 0.7 °C
3 | COc1cc(C2=NOC(c3cc(OC)c(OC)c(OC)c3)C2)ccc1OCCCOc1cc2c(cc1OC)C(=O)N1CCC[C@H]1C=N2 (stereo partly drawn) [Compound 5a, (11aS)-7-(methyloxy)-8-(3-[(2-(methyloxy)-4-5-[3,4,5-tri(methyloxy)phenyl]-4-,5-dihydro-3-isoxazolylphenyl)oxy]propyloxy)-2,3,5,11a-tetrahydro-1H benzo[e]pyrrolo[1,2-a][1,4]diazepi-5-one] | 3.9 °C | 6.0 °C
4 | COc1cc(C2=NOC(c3cc(OC)c(OC)c(OC)c3)C2)ccc1OCCCCCOc1cc2c(cc1OC)C(=O)N1CCC[C@H]1C=N2 (stereo partly drawn) [Compound 5c, (11aS)-7-(methyloxy)-8-(5-[(2-(methyloxy)-4-5-[3,4,5-tri(methyloxy)phenyl]-4,5-dihydro-3-isoxazolylphenyl)oxy]pentyloxy)-2,3,5,11a-tetrahydro-1H benzo[e]pyrrolo[1,2-a][1,4]diazepi-5-one] | 7.0 °C | 8 °C
